Common to all, as to assay type: biochemical
For experiment [1], the target named is T1, human macrophage elastase (HME/hMMP-12) (Homo sapiens, UniProt P39900).
T1 construct: 0.5 nM HME; purchased R&D Systems 917-MP
Briefly: In vitro HME inhibition test (standard or high-sensitivity). The following applies: in some cases mean values. The gist of the method: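 Fluorogenic assay: 0.5 nM autoactivated HME with 5 µM Mca-Pro-Leu-Gly-Leu-Glu-Glu-Ala-Dap(Dnp)-NH2 in HEPES pH 7.4 buffer (NaCl, CaCl2, ZnCl2, EDTA, Brij), 2 h at 37 °C; ex 323/em 393 nm. IC50 from fluorescence versus concentration. High-sensitivity format: ~0.05 nM enzyme, ~16 h incubation.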

A further experiment addresses T2, MMP-10 (Homo sapiens, UniProt P09238).
T2 construct: purchased R&D Systems 910-MP
The experiment can be described thus: In vitro MMP-10 inhibition test. The procedure, abridged: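 APMA-activated recombinant MMP-10 (final e.g. 2 nM) with quenched Mca-Arg-Pro-Lys-Pro-Val-Glu-Nval-Trp-Arg-Lys(Dnp)-NH2 substrate (final e.g. 10 μM) in 50 mM Tris/HCl pH 7.5, 10 mM CaCl2, 150 mM NaCl, 0.05% Brij-35. Fluorescence (ex 320/em 410 nm) followed e.g. 120 min at 32 °C. IC50 at 50% signal.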

In a further experiment the target is T3, MMP-13 (Homo sapiens, UniProt P45452).
T3 construct: purchased R&D Systems 511-MP
The experiment can be described thus: In vitro MMP-13 inhibition test. The procedure, abridged: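 APMA-activated recombinant MMP-13 (e.g. 0.1 nM final) in 50 mM Tris/HCl pH 7.5, 10 mM CaCl2, 150 mM NaCl, 0.05% Brij-35 with Mca-PLGL-Dpa(Dnp)-AR-NH2 substrate (e.g. 10 μM final). Fluorescence (ex 320/em 410 nm) followed e.g. 120 min at 32 °C; IC50 at 50% signal.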

Another experiment has as its target T4, MMP-14 (Homo sapiens, UniProt P50281).
T4 construct: purchased R&D Systems 918-MP
The experiment can be described thus: In vitro MMP-14 inhibition test. The gist of the method:
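Furin-activated recombinant MMP-14 (e.g. 0.5 nM final) with compound in Tris pH 7.5, CaCl2, NaCl, Brij-35 buffer; Mca/Dnp quenched peptide substrate, e.g. 5 μM final. Fluorescence (ex 320/em 410 nm) followed e.g. 120 min at 32 °C; IC50 at half-maximal signal.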

The target in the next experiment is T5, MMP-16 (Homo sapiens, UniProt P51512).
T5 construct: purchased R&D Systems 1785-MP
T5 sequence (P51512 120-564 limits assumed): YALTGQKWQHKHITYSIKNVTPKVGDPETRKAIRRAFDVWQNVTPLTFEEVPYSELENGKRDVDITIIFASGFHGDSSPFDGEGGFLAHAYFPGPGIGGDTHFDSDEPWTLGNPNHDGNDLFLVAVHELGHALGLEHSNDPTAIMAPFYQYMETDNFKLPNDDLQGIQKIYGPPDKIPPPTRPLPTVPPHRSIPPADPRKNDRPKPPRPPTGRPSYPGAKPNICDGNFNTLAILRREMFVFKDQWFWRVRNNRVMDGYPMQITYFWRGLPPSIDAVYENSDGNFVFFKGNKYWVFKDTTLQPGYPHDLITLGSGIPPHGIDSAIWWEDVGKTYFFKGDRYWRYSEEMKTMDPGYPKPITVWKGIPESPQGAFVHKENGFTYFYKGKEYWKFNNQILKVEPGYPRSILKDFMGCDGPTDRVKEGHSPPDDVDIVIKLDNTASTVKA
The experiment can be described thus: In vitro MMP-16 inhibition test. The gist of the method: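 Furin-activated recombinant MMP-16 (e.g. 1 nM) in 50 mM Tris/HCl pH 7.5, 10 mM CaCl2, 150 mM NaCl and 0.05% Brij-35 received compound in DMSO (e.g. 1 nM–30 μM), then 5 μM Mca-Lys-Pro-Leu-Gly-Leu-Dpa(Dnp)-Ala-Arg-NH2. Fluorescence (ex 320/em 410 nm) was followed, e.g. over 120 min at 32 °C. IC50 is the concentration halving the signal.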

T1 sequence (P39900 106-470): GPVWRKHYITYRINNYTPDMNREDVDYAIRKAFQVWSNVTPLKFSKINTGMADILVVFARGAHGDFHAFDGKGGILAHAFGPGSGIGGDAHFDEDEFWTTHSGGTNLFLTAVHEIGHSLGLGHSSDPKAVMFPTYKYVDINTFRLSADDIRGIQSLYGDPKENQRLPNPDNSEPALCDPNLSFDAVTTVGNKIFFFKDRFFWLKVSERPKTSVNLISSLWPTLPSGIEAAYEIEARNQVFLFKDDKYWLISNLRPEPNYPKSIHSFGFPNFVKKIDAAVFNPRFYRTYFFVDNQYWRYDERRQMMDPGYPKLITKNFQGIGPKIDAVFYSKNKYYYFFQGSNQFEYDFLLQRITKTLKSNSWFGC
T2 sequence (P09238 99-476): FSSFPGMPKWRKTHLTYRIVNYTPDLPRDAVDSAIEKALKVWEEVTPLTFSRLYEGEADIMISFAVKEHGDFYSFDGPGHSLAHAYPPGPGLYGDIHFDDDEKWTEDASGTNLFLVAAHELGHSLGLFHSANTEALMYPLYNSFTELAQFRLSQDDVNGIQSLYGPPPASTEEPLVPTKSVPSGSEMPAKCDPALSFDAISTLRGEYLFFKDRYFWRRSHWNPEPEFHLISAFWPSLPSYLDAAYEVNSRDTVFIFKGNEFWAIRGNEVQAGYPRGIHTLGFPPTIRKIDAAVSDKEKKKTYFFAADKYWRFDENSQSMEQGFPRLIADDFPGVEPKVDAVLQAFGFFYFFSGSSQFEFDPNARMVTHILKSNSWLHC

In general, IC50 refers to the midpoint of a concentration-inhibition curve. As to `O=C(O)[C@@H]1[C@@H](Cn2nnc3ccc(C(F)(F)F)cc3c2=O)CC[C@H]1C(=O)c1ccc(OCc2cccc(Cl)c2)cc1` (single isomer, unassigned) [Example 23, (+)-(1RS,2RS,5SR)-2-{4-[(3-Chlorobenzyl)oxy]benzoyl}-5-{[4-oxo-6-(trifluoromethyl)-1,2,3-benzotriazin-3(4H)-yl]methyl}cyclopentanecarboxylic acid], the IC50 in experiment [1] is 0.032 nM; on MMP-10 it was 87 nM; at MMP-13, 1500 nM; on MMP-14, 1200 nM; at MMP-16, 2200 nM.
Turning to `Cc1cccc(COc2ccc(C(=O)[C@H]3CC[C@@H](Cn4nnc5ccc(C(F)(F)F)cc5c4=O)[C@@H]3C(=O)O)cc2)c1` (racemic) [Example 15, (+/−)-(1RS,2RS,5SR)-2-{4-[(3-Methylbenzyl)oxy]benzoyl}-5-{[4-oxo-6-(trifluoromethyl)-1,2,3-benzotriazin-3(4H)-yl]methyl}cyclopentanecarboxylic acid], the IC50 in experiment [1] turned out to be 0.05 nM; at MMP-10, 26 nM; against MMP-13, 640 nM; on MMP-14, 180 nM; at MMP-16, 520 nM.
“(+)-(1RS,2RS,5SR)-2-{4-[Cyclohexyl)methyl)sulphanyl]benzoyl}-5-{[4-oxo-6-(trifluoromethyl)-1,2,3-benzotriazin-3(4H)-yl]methyl}cyclopentanecarboxylic acid [Example 86]”: the IC50 in experiment [1] was determined as 0.018 nM; against MMP-10, 160 nM; against MMP-13, 6600 nM; against MMP-14 it was 3900 nM; at MMP-16, 14000 nM.
On the same counts, the results for `Cc1ccc2nnn(C[C@H]3CC[C@@H](C(=O)c4ccc(OCc5ccccc5)cc4)[C@@H]3C(=O)O)c(=O)c2c1` (single isomer, unassigned) [Example 92, (+)-(1RS,2RS,5SR)-2-[4-(Benzyloxy)benzoyl]-5-[(6-methyl-4-oxo-1,2,3-benzotriazin-3(4H)-yl)methyl]cyclopentanecarboxylic acid] are 0.048 nM, 15 nM, 27 nM, 33 nM and 110 nM.
On the same counts, the results for `COc1cccc(COc2ccc(C(=O)[C@@H]3CC[C@H](Cn4nnc5ccc(C)cc5c4=O)[C@H]3C(=O)O)cc2)c1` (single isomer, unassigned) [Example 107, (+)-(1RS,2RS,5SR)-2-{4-[(3-Methoxybenzyl)oxy]benzoyl}-5-[(6-methyl-4-oxo-1,2,3-benzotriazin-3(4H)-yl)methyl]cyclopentanecarboxylic acid] are 0.035 nM, 52 nM, 150 nM, 290 nM and 650 nM.
The matching figures for `CCCCOc1ccc(C(=O)[C@@H]2CC[C@H](Cn3nnc4ccc(C(F)(F)F)cc4c3=O)[C@H]2C(=O)O)cc1` (single isomer, unassigned) [Example 67, (+)-(1RS,2RS,5SR)-2-(4-Butoxybenzoyl)-5-{[4-oxo-6-(trifluoromethyl)-1,2,3-benzotriazin-3(4H)-yl]methyl}cyclopentanecarboxylic acid]: 0.015 nM, 14 nM, 270 nM, 96 nM and 180 nM.
`O=C(O)[C@H]1[C@H](Cn2nnc3ccc(C(F)(F)F)cc3c2=O)CC[C@@H]1C(=O)c1ccc(OCc2ccccc2)cc1` (racemic) [Example 11, (+/−)-(1RS,2RS,5SR)-2-[4-(Benzyloxy)benzoyl]-5-{[4-oxo-6-(trifluoromethyl)-1,2,3-benzotriazin-3(4H)-yl]methyl}cyclopentanecarboxylic acid]: the IC50 in experiment [1] was 0.014 nM; on MMP-10 it was 16 nM; against MMP-13, 88 nM; against MMP-14, 150 nM; against MMP-16 it was 4500 nM.
On the same counts, the results for `Cc1ccc2nnn(C[C@H]3CC[C@@H](C(=O)c4ccc(OCc5cccc(OC(F)(F)F)c5)cc4)[C@@H]3C(=O)O)c(=O)c2c1` (single isomer, unassigned) [Example 110, (+)-(1RS,2SR,5RS)-2-[(6-Methyl-4-oxo-1,2,3-benzotriazin-3(4H)-yl)methyl]-5-(4-{[3-(trifluoromethoxy)benzyl]oxy}benzoyl)cyclopentanecarboxylic acid] are 0.087 nM, 130 nM, 260 nM, 720 nM and 2100 nM.
Regarding `Cc1ccc2nnn(C[C@@H]3CC[C@H](C(=O)c4ccc(OCc5cccc(OC(F)(F)F)c5)cc4)[C@H]3C(=O)O)c(=O)c2c1` (racemic) [Example 109, (+/−)-(1RS,2SR,5RS)-2-[(6-Methyl-4-oxo-1,2,3-benzotriazin-3(4H)-yl)methyl]-5-(4-{[3-(trifluoromethoxy)benzyl]oxy}benzoyl)cyclopentanecarboxylic acid], the IC50 turned out to be 0.14 nM in experiment [1]; 100 nM against MMP-10; 190 nM on MMP-13; 670 nM at MMP-14; 3200 nM against MMP-16.
Take `O=C(O)[C@@H]1[C@@H](Cn2nnc3ccc(C(F)(F)F)cc3c2=O)CC[C@H]1C(=O)c1ccc(OCc2ccc(Cl)cc2)cc1` (single isomer, unassigned) [Example 25, (+)-(1RS,2RS,5SR)-2-{4-[(4-Chlorobenzyl)oxy]benzoyl}-5-{[4-oxo-6-(trifluoromethyl)-1,2,3-benzotriazin-3(4H)-yl]methyl}cyclopentanecarboxylic acid]: the IC50 in experiment [1] is 0.013 nM; against MMP-10, 19 nM; against MMP-13 it was 45 nM; at MMP-14, 230 nM; against MMP-16, 290 nM.
Regarding `Cc1ccc2nnn(C[C@@H]3CC[C@H](C(=O)c4ccc(OCc5ccccc5)cc4)[C@H]3C(=O)O)c(=O)c2c1` (racemic) [Example 91, (+/−)-(1RS,2RS,5SR)-2-[4-(Benzyloxy)benzoyl]-5-[(6-methyl-4-oxo-1,2,3-benzotriazin-3(4H)-yl)methyl]cyclopentanecarboxylic acid], the IC50 was 0.074 nM in experiment [1]; 21 nM on MMP-10; 50 nM on MMP-13; 68 nM at MMP-14; 1700 nM against MMP-16.
In the case of `Cc1ccc2nnn(C[C@H]3CC[C@@H](C(=O)c4ccc(OCc5cccc(C(F)(F)F)c5)cc4)[C@@H]3C(=O)O)c(=O)c2c1` (single isomer, unassigned) [Example 101, (+)-(1RS,2SR,5RS)-2-[(6-Methyl-4-oxo-1,2,3-benzotriazin-3(4H)-yl)methyl]-5-(4-{[3-(trifluoromethyl)benzyl]oxy}benzoyl)cyclopentanecarboxylic acid], the IC50 was 0.086 nM in experiment [1]; 110 nM at MMP-10; 210 nM on MMP-13; 380 nM at MMP-14; 880 nM on MMP-16.
Take `O=C(O)[C@H]1[C@H](Cn2nnc3ccc(C(F)(F)F)cc3c2=O)CC[C@@H]1C(=O)c1ccc(OCCCc2ccccc2)cc1` (racemic) [Example 39, (+/−)-(1RS,2SR,5RS)-2-{[4-Oxo-6-(trifluoromethyl)-1,2,3-benzotriazin-3(4H)-yl]methyl}-5-[4-(3-phenylpropoxy)benzoyl]cyclopentanecarboxylic acid]: the IC50 in experiment [1] came out at 0.044 nM; on MMP-10 it was 170 nM; against MMP-13, 1600 nM; on MMP-14 it was 6400 nM; at MMP-16 it was 14000 nM.

The values are drawn from patent US20170022171A1, “2,5-DISUBSTITUTED CYCLOPENTANECARBOXYLIC ACIDS AND THEIR USE” (Bayer Pharma Aktiengesellschaft, priority 2014, published 2017).
